Columns and labels:
[1] = system: powdery mildew, brown rust and Septoria disease; test: open field trials on cereals, conclusion over the 3 diseases; format: in vivo
Description: (§1) They are intended to give an illustration of the efficacy of the compositions according to the invention on cereal diseases, in particular the compositions combining compound (A), having the chemical name N-ethyl-N-methyl-N′-[4-(chloro-3-trifluoromethylphénoxy)-2,5-xylyl]formamidine, with fungicidal compounds of the triazole and morpholine type. The trials on cereals were carried out in an open field.
(§2) The objective of these field trials is therefore to test the efficacy of compounds (A) of formula (I), in particular N-ethyl-N-methyl-N′-[4-(chloro-3-trifluoromethylphenoxy)-2,5-xylyl]formamidine, alone at 125 g/ha and combined with 2 fungicides which are commercially available: fluquinconazole (100 g/ha) and fenpropimorph (750 g/ha) representing 2 classes of fungicidal compounds. Powdery mildew, brush rust and Septoria disease mycosphaerella graminicola (Septoria tritici) are the principal diseases treated.
(§3) Each trial comprises 3 repeats and untreated control plots are included in the experimental design in order to measure the severity of the diseases.
All the trials are conducted under natural contamination conditions. The equipment for application is a constant compressed air pressure back sprayer. The spray nozzles have slits.
The efficacy results are obtained from controls carried out in the field: […]

[2] = system: Wheat powdery mildew (Erysiphe graminis); test: open field trial on wheat, powdery mildew; format: in vivo; details: natural contamination, measured 59 days after the application
Description: as §1, §2
The products tested are therefore
N-ethyl-N-methyl-N′-[4-(chloro-3-trifluorométhylphénoxy)-2,5-xylyl]-formamidine as compound (A) at 125 g/ha as an EC type formulation at 100 g/l, fluquinconazole as compound (B) at 100 g/ha as a formulation at 100 g/l, fenpropimorph as another compound (B) at 750 g/ha at 750 g/l, compound (A) and fluquinconazole combination at 125+100 g/ha as a fresh preparation, compound (A) and fenpropimorph combination at 125+750 g/ha, also as a fresh preparation, epoxyconazole+kresoxim-methyl at 125+125 g/ha on the 3 diseases, quinoxyfen at 150 g/ha on powdery mildew.
as §3
All the trials are conducted under natural contamination conditions. The equipment for application is a constant compressed air pressure back sprayer. The spray nozzles have slits. […]

## CCN(C)C=Nc1cc(C)c(Oc2ccc(Cl)c(C(F)(F)F)c2)cc1C [compound (A), N-ethyl-N-methyl-N′-[4-(chloro-3-trifluoromethylphénoxy)-2,5-xylyl]formamidine]
[1]; 3 major cereal diseases: powdery mildew, brown rust and Septoria disease
  effect on persistence of activity of compounds (B): significantly improve the persistence of activity of compounds (B) fluquinconazole and fenpropimorph
[1]; compound alone
  persistence of activity: not very persistent by itself

## Fc1ccc(Oc2ccnc3cc(Cl)cc(Cl)c23)cc1 [Quinoxyfen, quinoxyfen]
[2]
  efficacy / persistence of activity on wheat powdery mildew: low but significant efficacy

## CC(Cc1ccc(C(C)(C)C)cc1)CN1C[C@@H](C)O[C@@H](C)C1 (some centres unmarked) [fenpropimorph]
[2]
  efficacy / persistence of activity on wheat powdery mildew: no longer have an activity

## O=c1c2cc(F)ccc2nc(-n2cncn2)n1-c1ccc(Cl)cc1Cl [Fluquinconazole, fluquinconazole]
[2]
  efficacy / persistence of activity on wheat powdery mildew: no longer have an activity

From patent publication US20040241098A1, “Fungicidal mixture containing arylamidine derivatives” (priority 2001, published 2004)
